In PMC5218480 (PLoS ONE, 2017):

System: MV-4-11 cells
Assay: Gene expression microarray analysis (Affymetrix PrimeView) and GSEA
Format: cell-based, human
Parameters: RFU PODN (11730768_x_at) / Fold change /veh PODN (11730768_x_at) / RFU LINC00158 (11744669_a_at) / Fold change /veh LINC00158 (11744669_a_at) / RFU DUSP10 (11751237_a_at) / Fold change /veh DUSP10 (11751237_a_at) / RFU ID3 (11757404_x_at) / Fold change /veh ID3 (11757404_x_at) / RFU PLEKHG5 (11737974_s_at) / Fold change /veh PLEKHG5 (11737974_s_at) / RFU LRRC4B (11730491_at) / Fold change /veh LRRC4B (11730491_at) / RFU GIMAP4 (11747438_a_at) / Fold change /veh GIMAP4 (11747438_a_at) / RFU KRT8 (11758183_x_at) / Fold change /veh KRT8 (11758183_x_at) / RFU CNN1 (11734310_a_at) / Fold change /veh CNN1 (11734310_a_at) / RFU VPS37D (11726825_at) / Fold change /veh VPS37D (11726825_at) / RFU C10orf10 (11716522_x_at) / Fold change /veh C10orf10 (11716522_x_at) / RFU KIR2DL2 /// KIR2DL4 /// KIR2DL5A /// KIR2DL5B /// KIR2DS1 /// KIR2DS2 /// KIR2DS3 /// KIR2DS4 /// KIR3DL3 /// KIR3DL3 /// KIR3DS1 (11738374_at) / Fold change /veh KIR2DL2 /// KIR2DL4 /// KIR2DL5A /// KIR2DL5B /// KIR2DS1 /// KIR2DS2 /// KIR2DS3 /// KIR2DS4 /// KIR3DL3 /// KIR3DL3 /// KIR3DS1 (11738374_at) / RFU C1QL1 (11718748_at) / Fold change /veh C1QL1 (11718748_at) / RFU TMPRSS4 (11747572_a_at) / Fold change /veh TMPRSS4 (11747572_a_at) / RFU HAMP (11756126_x_at) / Fold change /veh HAMP (11756126_x_at) / RFU RNFT2 (11725882_a_at) / Fold change /veh RNFT2 (11725882_a_at) / RFU NR4A2 (11747474_a_at) / Fold change /veh NR4A2 (11747474_a_at) / RFU ABCC12 (11746883_a_at) / Fold change /veh ABCC12 (11746883_a_at) / RFU TMEM136 (11760407_x_at) / Fold change /veh TMEM136 (11760407_x_at) / RFU CLDN22 /// WWC2 (11732394_at) / Fold change /veh CLDN22 /// WWC2 (11732394_at) / RFU HLA-DPB1 (11760878_x_at) / Fold change /veh HLA-DPB1 (11760878_x_at) / RFU SPINT1 (11716480_a_at) / Fold change /veh SPINT1 (11716480_a_at) / RFU GAP43 (11754022_s_at) / Fold change /veh GAP43 (11754022_s_at) / RFU A4GNT (11735810_at) / Fold change /veh A4GNT (11735810_at) / RFU PRB3 (11715151_x_at) / Fold change /veh PRB3 (11715151_x_at) / RFU TUBB4B (11761932_at) / Fold change /veh TUBB4B (11761932_at) / RFU CAPN14 (11732068_a_at) / Fold change /veh CAPN14 (11732068_a_at) / RFU TMCC2 (11721928_a_at) / Fold change /veh TMCC2 (11721928_a_at) / RFU IRGQ (11745062_a_at) / Fold change /veh IRGQ (11745062_a_at) / RFU FAM174B (11720279_a_at) / Fold change /veh FAM174B (11720279_a_at) / RFU TMPRSS4 (11748680_a_at) / Fold change /veh TMPRSS4 (11748680_a_at) / RFU FAM212B (11763350_a_at) / Fold change /veh FAM212B (11763350_a_at) / RFU PLEKHG5 (11743358_a_at) / Fold change /veh PLEKHG5 (11743358_a_at) / RFU ZSCAN30 (11745921_a_at) / Fold change /veh ZSCAN30 (11745921_a_at) / RFU CMKLR1 (11741424_a_at) / Fold change /veh CMKLR1 (11741424_a_at) / RFU LOC101060620 /// MAPK8IP1 (11723275_at) / Fold change /veh LOC101060620 /// MAPK8IP1 (11723275_at) / RFU SPTSSB (11747773_x_at) / Fold change /veh SPTSSB (11747773_x_at) / RFU PRSS12 (11739890_at) / Fold change /veh PRSS12 (11739890_at) / RFU BIN1 (11741810_x_at) / Fold change /veh BIN1 (11741810_x_at) / RFU WNT11 (11732464_a_at) / Fold change /veh WNT11 (11732464_a_at) / RFU C10orf10 (11716521_a_at) / Fold change /veh C10orf10 (11716521_a_at) / RFU C5orf56 (11738089_at) / Fold change /veh C5orf56 (11738089_at) / RFU CYB561 (11721691_x_at) / Fold change /veh CYB561 (11721691_x_at) / RFU ANKRD19P (11752326_a_at) / Fold change /veh ANKRD19P (11752326_a_at) / RFU OR2T12 /// OR2T33 /// OR2T8 (11738714_s_at) / Fold change /veh OR2T12 /// OR2T33 /// OR2T8 (11738714_s_at) / RFU VCAN (11748164_a_at) / Fold change /veh VCAN (11748164_a_at) / RFU JSRP1 (11732532_at) / Fold change /veh JSRP1 (11732532_at) / RFU KRTAP10-11 (11738290_x_at) / Fold change /veh KRTAP10-11 (11738290_x_at) / RFU MYO3A (11730013_a_at) / Fold change /veh MYO3A (11730013_a_at) / RFU EBF3 (11725865_a_at) / Fold change /veh EBF3 (11725865_a_at) / RFU CAMK2N1 (11719241_x_at) / Fold change /veh CAMK2N1 (11719241_x_at) / RFU C5orf56 (11738088_a_at) / Fold change /veh C5orf56 (11738088_a_at) / RFU OLFML3 (11715873_a_at) / Fold change /veh OLFML3 (11715873_a_at) / RFU LOC100653217 /// NTM (11731650_a_at) / Fold change /veh LOC100653217 /// NTM (11731650_a_at) / RFU MAPK11 (11762145_a_at) / Fold change /veh MAPK11 (11762145_a_at) / RFU FIZ1 (11724087_x_at) / Fold change /veh FIZ1 (11724087_x_at) / RFU OASL (11726364_x_at) / Fold change /veh OASL (11726364_x_at) / RFU SOX15 (11748057_x_at) / Fold change /veh SOX15 (11748057_x_at) / RFU CD79A (11719716_a_at) / Fold change /veh CD79A (11719716_a_at) / RFU HIST1H1D (11736915_at) / Fold change /veh HIST1H1D (11736915_at) / RFU CASKIN2 (11723855_a_at) / Fold change /veh CASKIN2 (11723855_a_at) / RFU LOC730098 (11760151_x_at) / Fold change /veh LOC730098 (11760151_x_at) / RFU OR4N2 (11742367_at) / Fold change /veh OR4N2 (11742367_at) / RFU PRRT2 (11749266_a_at) / Fold change /veh PRRT2 (11749266_a_at) / RFU SNX32 (11753110_a_at) / Fold change /veh SNX32 (11753110_a_at) / RFU CDHR5 (11726645_a_at) / Fold change /veh CDHR5 (11726645_a_at) / RFU RCAN1 (11760418_a_at) / Fold change /veh RCAN1 (11760418_a_at) / RFU FAM167A (11723789_a_at) / Fold change /veh FAM167A (11723789_a_at) / RFU FAM26E (11764081_at) / Fold change /veh FAM26E (11764081_at) / RFU ISYNA1 (11749810_s_at) / Fold change /veh ISYNA1 (11749810_s_at) / RFU ACY1 (11761880_at) / Fold change /veh ACY1 (11761880_at) / RFU 11764098_at / Fold change /veh 11764098_at / RFU SAMD14 (11745864_x_at) / Fold change /veh SAMD14 (11745864_x_at) / RFU NPB (11741838_a_at) / Fold change /veh NPB (11741838_a_at) / RFU TMPRSS6 (11731388_a_at) / Fold change /veh TMPRSS6 (11731388_a_at) / RFU KRTAP10-2 (11738614_at) / Fold change /veh KRTAP10-2 (11738614_at) / RFU ARHGAP8 /// PRR5-ARHGAP8 (11727945_x_at) / Fold change /veh ARHGAP8 /// PRR5-ARHGAP8 (11727945_x_at) / RFU KRTAP5-7 /// NADSYN1 (11734609_at) / Fold change /veh KRTAP5-7 /// NADSYN1 (11734609_at) / RFU RASL12 (11751679_a_at) / Fold change /veh RASL12 (11751679_a_at) / RFU CDKN2B (11736163_a_at) / Fold change /veh CDKN2B (11736163_a_at) / RFU PRF1 (11729649_at) / Fold change /veh PRF1 (11729649_at) / RFU, ZNF638 /// ZNF638-IT1 / Fold change vs veh, ZNF638 /// ZNF638-IT1 / RFU, PANK3 / Fold change vs veh, PANK3 / RFU, SH3YL1 / Fold change vs veh, SH3YL1 / RFU, ZEB2 / Fold change vs veh, ZEB2 / RFU, NRIP1 / Fold change vs veh, NRIP1 / RFU, PTTG1IP / Fold change vs veh, PTTG1IP / RFU, CAPN2 / Fold change vs veh, CAPN2 / RFU, MED14 / Fold change vs veh, MED14 / RFU, SNORA58 / Fold change vs veh, SNORA58 / RFU, C1orf63 / Fold change vs veh, C1orf63 / RFU, LRRFIP1 / Fold change vs veh, LRRFIP1 / RFU, NDUFAF7 / Fold change vs veh, NDUFAF7 / RFU, SLC12A2 / Fold change vs veh, SLC12A2 / RFU, IBTK / Fold change vs veh, IBTK / RFU, ESF1 / Fold change vs veh, ESF1 / Fold change vs veh, TMEM50B / RFU, TAOK1 / Fold change vs veh, TAOK1 / RFU, ACBD3 / Fold change vs veh, ACBD3 / RFU, TMA16 / Fold change vs veh, TMA16 / RFU, RWDD3 / Fold change vs veh, RWDD3 / RFU, BCAT1 / Fold change vs veh, BCAT1 / RFU, EDEM3 / Fold change vs veh, EDEM3 / RFU, TMEM33 / Fold change vs veh, TMEM33 / RFU, WDR75 / Fold change vs veh, WDR75 / RFU, AHCTF1 / Fold change vs veh, AHCTF1 / RFU, TFRC / Fold change vs veh, TFRC / RFU, ZDHHC17 / Fold change vs veh, ZDHHC17 / RFU, NOM1 / Fold change vs veh, NOM1 / RFU, ARL8B / Fold change vs veh, ARL8B / RFU, ZBTB11 / Fold change vs veh, ZBTB11 / RFU, TAMM41 / Fold change vs veh, TAMM41 / RFU, KIAA1704 /// LOC100996395 / Fold change vs veh, KIAA1704 /// LOC100996395 / RFU, ING1 / Fold change vs veh, ING1 / RFU, TRMT61B / Fold change vs veh, TRMT61B / RFU, FUBP3 / Fold change vs veh, FUBP3 / RFU, TP53 / Fold change vs veh, TP53 / RFU, TNKS2 / Fold change vs veh, TNKS2 / RFU, ZFP14 / Fold change vs veh, ZFP14 / RFU, ACTR2 / Fold change vs veh, ACTR2 / RFU, PPP3R1 / Fold change vs veh, PPP3R1 / RFU, PIK3R1 / Fold change vs veh, PIK3R1 / RFU, HNRNPA1 / Fold change vs veh, HNRNPA1 / RFU, RNF170 / Fold change vs veh, RNF170 / RFU, ZNF28 / Fold change vs veh, ZNF28 / RFU, RNGTT / Fold change vs veh, RNGTT / RFU, OGT / Fold change vs veh, OGT / RFU, BRD1 / Fold change vs veh, BRD1 / RFU, MARS / Fold change vs veh, MARS / RFU, ZNF655 / Fold change vs veh, ZNF655 / RFU, FAHD1 / Fold change vs veh, FAHD1 / RFU, BDP1 / Fold change vs veh, BDP1 / RFU, LRRCC1 / Fold change vs veh, LRRCC1 / RFU, ARID1A / Fold change vs veh, ARID1A / RFU, ZNF146 / Fold change vs veh, ZNF146 / RFU, ZNF330 / Fold change vs veh, ZNF330 / RFU, GPN3 / Fold change vs veh, GPN3 / RFU, C9orf123 / Fold change vs veh, C9orf123 / RFU, N4BP2L2 / Fold change vs veh, N4BP2L2 / RFU, ARFIP1 / Fold change vs veh, ARFIP1 / RFU, FAM179B / Fold change vs veh, FAM179B / RFU, BCL10 / Fold change vs veh, BCL10 / RFU, UHRF1BP1L / Fold change vs veh, UHRF1BP1L / RFU, BET1 / Fold change vs veh, BET1 / RFU, CNOT2 / Fold change vs veh, CNOT2 / RFU, ZNF268 / Fold change vs veh, ZNF268 / Fold change vs veh, ZNF507 / RFU, DGCR2 / Fold change vs veh, DGCR2 / RFU, WDSUB1 / Fold change vs veh, WDSUB1 / Fold change vs veh, HSP90B1 /// MIR3652 / RFU, ADSS / Fold change vs veh, ADSS / RFU, GK / Fold change vs veh, GK / RFU, ZNF148 / Fold change vs veh, ZNF148 / RFU, TAF9 / Fold change vs veh, TAF9 / RFU, SLC1A5 / Fold change vs veh, SLC1A5 / RFU, SLMO2 / Fold change vs veh, SLMO2 / RFU, ABCC4 / Fold change vs veh, ABCC4 / RFU, LOC101060439 /// RAP1B / Fold change vs veh, LOC101060439 /// RAP1B / RFU, RFX7 / Fold change vs veh, RFX7 / RFU, GTPBP10 / Fold change vs veh, GTPBP10 / RFU, CNEP1R1 / Fold change vs veh, CNEP1R1 / RFU, BIVM-ERCC5 /// ERCC5 / Fold change vs veh, BIVM-ERCC5 /// ERCC5 / RFU, ILF3 / Fold change vs veh, ILF3 / RFU 11762660_at / Fold change /veh 11762660_at / RFU VCAN (11757783_s_at) / Fold change /veh VCAN (11757783_s_at) / RFU DDX43 (11728927_at) / Fold change /veh DDX43 (11728927_at) / RFU KRT8 (11758188_x_at) / Fold change /veh KRT8 (11758188_x_at) / RFU NKD1 (11759106_at) / Fold change /veh NKD1 (11759106_at) / RFU SRD5A1 (11742802_a_at) / Fold change /veh SRD5A1 (11742802_a_at) / RFU TPSAB1 /// TPSB2 (11721975_s_at) / Fold change /veh TPSAB1 /// TPSB2 (11721975_s_at) / RFU GSTM3 (11746129_a_at) / Fold change /veh GSTM3 (11746129_a_at) / RFU IL23R (11737362_x_at) / Fold change /veh IL23R (11737362_x_at) / RFU TMEM51 (11727254_a_at) / Fold change /veh TMEM51 (11727254_a_at) / RFU PIWIL2 (11732686_x_at) / Fold change /veh PIWIL2 (11732686_x_at) / RFU ORM1 (11744905_x_at) / Fold change /veh ORM1 (11744905_x_at) / RFU CCDC152 (11743942_at) / Fold change /veh CCDC152 (11743942_at) / RFU ECM1 (11717891_a_at) / Fold change /veh ECM1 (11717891_a_at) / RFU IL23R (11748794_a_at) / Fold change /veh IL23R (11748794_a_at) / RFU TNFAIP8L3 (11732012_x_at) / Fold change /veh TNFAIP8L3 (11732012_x_at) / RFU MBOAT4 (11741988_at) / Fold change /veh MBOAT4 (11741988_at) / RFU 11764193_at / Fold change /veh 11764193_at / RFU TMEM53 (11763286_at) / Fold change /veh TMEM53 (11763286_at) / RFU MAGEB2 (11727129_at) / Fold change /veh MAGEB2 (11727129_at) / RFU TMEM200A (11744735_a_at) / Fold change /veh TMEM200A (11744735_a_at) / RFU CCDC152 (11751479_a_at) / Fold change /veh CCDC152 (11751479_a_at) / RFU FAM211A (11726209_a_at) / Fold change /veh FAM211A (11726209_a_at) / RFU RGS16 (11746705_a_at) / Fold change /veh RGS16 (11746705_a_at) / RFU VCAN (11755009_s_at) / Fold change /veh VCAN (11755009_s_at) / RFU RHOB (11743442_s_at) / Fold change /veh RHOB (11743442_s_at) / RFU RGS16 (11720943_a_at) / Fold change /veh RGS16 (11720943_a_at) / RFU RGS16 (11720944_at) / Fold change /veh RGS16 (11720944_at) / RFU, VPS4B / Fold change vs veh, VPS4B / RFU, CREB1 / Fold change vs veh, CREB1 / RFU, DNAJC13 / Fold change vs veh, DNAJC13 / RFU, GNAQ / Fold change vs veh, GNAQ / RFU, CDK5R1 / Fold change vs veh, CDK5R1 / RFU, ZRANB3 / Fold change vs veh, ZRANB3 / RFU, CUL4A / Fold change vs veh, CUL4A / RFU, CCNY / Fold change vs veh, CCNY / RFU, UFL1 / Fold change vs veh, UFL1 / RFU, COG3 / Fold change vs veh, COG3 / RFU, DIAPH2 / Fold change vs veh, DIAPH2 / RFU, SKA2 / Fold change vs veh, SKA2 / RFU, AFF3 / Fold change vs veh, AFF3 / RFU, LMF1 / Fold change vs veh, LMF1 / RFU, IPO11 / Fold change vs veh, IPO11 / RFU, DFFB / Fold change vs veh, DFFB / RFU, FOXP1 / Fold change vs veh, FOXP1 / RFU, CARD8 / Fold change vs veh, CARD8 / RFU, STRN3 / Fold change vs veh, STRN3 / RFU, ADK / Fold change vs veh, ADK / RFU, RASSF2 / Fold change vs veh, RASSF2 / RFU, WIPF1 / Fold change vs veh, WIPF1 / RFU, LARP1B / Fold change vs veh, LARP1B / RFU, RASA1 / Fold change vs veh, RASA1 / RFU, RB1 / Fold change vs veh, RB1 / RFU, PPFIA1 / Fold change vs veh, PPFIA1 / RFU, MAT2A / Fold change vs veh, MAT2A / RFU, CCT5 / Fold change vs veh, CCT5 / RFU, WDR92 / Fold change vs veh, WDR92 / RFU, CUX1 / Fold change vs veh, CUX1 / RFU, TTC7A / Fold change vs veh, TTC7A / RFU, TMEM135 / Fold change vs veh, TMEM135 / RFU, DEPTOR / Fold change vs veh, DEPTOR / RFU, CPM / Fold change vs veh, CPM / RFU, DNAJB6 / Fold change vs veh, DNAJB6 / RFU, CACNA2D3 / Fold change vs veh, CACNA2D3 / RFU, DTX4 / Fold change vs veh, DTX4 / RFU, TFCP2 / Fold change vs veh, TFCP2 / RFU, GMCL1 /// GMCL1P1 / Fold change vs veh, GMCL1 /// GMCL1P1 / RFU, AEBP2 / Fold change vs veh, AEBP2 / RFU, SNHG1 /// SNORD22 /// SNORD25 /// SNORD26 /// SNORD27 /// SNORD28 /// SNORD29 /// SNORD31 / Fold change vs veh, SNHG1 /// SNORD22 /// SNORD25 /// SNORD26 /// SNORD27 /// SNORD28 /// SNORD29 /// SNORD31 / Fold change (Aza/veh), C12orf56 (ProbeSet 11735607_a_at) / Fold change (ACY-1035/veh), C12orf56 (ProbeSet 11735607_a_at) / Fold change (Aza/veh), FGFR1OP (ProbeSet 11751329_s_at) / Fold change (ACY-1035/veh), FGFR1OP (ProbeSet 11751329_s_at) / Fold change (Aza/veh), VPS36 (ProbeSet 11739960_a_at) / Fold change (ACY-1035/veh), VPS36 (ProbeSet 11739960_a_at) / RFU SYPL1 (11715823_x_at) / Fold change /veh SYPL1 (11715823_x_at) / RFU IGFBP7 (11715501_s_at) / Fold change /veh IGFBP7 (11715501_s_at) / RFU REEP3 (11722064_at) / Fold change /veh REEP3 (11722064_at) / RFU IGLL1 (11728026_x_at) / Fold change /veh IGLL1 (11728026_x_at): dose or concentration left out as unconfirmed
Settings: MV-4-11 cells, 48 hours

Nc1ccc(-c2cccs2)cc1NC(=O)c1ccc2c(c1)cc(C1CC1)n2CCN1CCOCC1 [ACY-1035]
RFU SPINT1 (11716480_a_at): 24.20 RFU
